Assay [1] addresses Tumour suppressor p53/oncoprotein Mdm2 (Homo sapiens, UniProt Q00987). Nature of the assay: (§1) Inhibition of p53-MDM2 expressed in Escherichia coli BL-21 (DE3) after 1 hr by fluorescence polarization competitive binding assay. A general note: Fluorescence polarisation rises when a labelled molecule tumbles more slowly, as on binding a larger partner.
In assay [2] the test system is PC-3. Nature of the assay: Antiproliferative activity against p53 deficient human PC3 cells after 72 hrs by MTT assay. Conditions: PC-3, 72 h. (In general: Tetrazolium assays rely on reduction of a dye to a coloured formazan, in cell work by metabolically active cells.)
The subject of assay [3] is KB. Nature of the assay: Antiproliferative activity against human KB cells expressing p53 mutant after 72 hrs by MTT assay. The format is functional, cell-based.
Assay [4] relates to A549. The assay can be described thus: Antiproliferative activity against human A549 cells expressing wild type p53 after 72 hrs by MTT assay. The following applies: A549, 72 h.
Assay [5] deals with HCT-116. The assay can be described thus: Antiproliferative activity against human HCT116 cells expressing wild type p53 after 72 hrs by MTT assay.
Assay [6] concerns A549. The assay can be described thus: Cell cycle arrest in human A549 cells expressing wild type p53 assessed as accumulation at G0/G1 phase at 10 uM after 72 hrs using propidium iodide staining by flow cytometric analysis (reference value: 73.28%). The assay is classed as functional. (Flow cytometry measures light scatter and fluorescence of single cells or particles in a stream.)

Assay [7] deals with A549. The assay can be described thus: Cell cycle arrest in human A549 cells expressing wild type p53 assessed as accumulation at G2/M phase at 10 uM after 72 hrs using propidium iodide staining by flow cytometric analysis (reference value: 7.49%). The assay is classed as functional.
Assay [8] has as its system A549. Nature of the assay: Cell cycle arrest in human A549 cells expressing wild type p53 assessed as accumulation at S phase at 10 uM after 72 hrs using propidium iodide staining by flow cytometric analysis (reference value: 19.23%). The assay is classed as functional.
In assay [9] the target is Tumour suppressor p53/oncoprotein Mdm2 (Homo sapiens, UniProt P04637+Q00987). Described as §1.
Tumour suppressor p53/oncoprotein Mdm2 (Homo sapiens, UniProt P04637+Q00987), sequence (P04637 whole entry): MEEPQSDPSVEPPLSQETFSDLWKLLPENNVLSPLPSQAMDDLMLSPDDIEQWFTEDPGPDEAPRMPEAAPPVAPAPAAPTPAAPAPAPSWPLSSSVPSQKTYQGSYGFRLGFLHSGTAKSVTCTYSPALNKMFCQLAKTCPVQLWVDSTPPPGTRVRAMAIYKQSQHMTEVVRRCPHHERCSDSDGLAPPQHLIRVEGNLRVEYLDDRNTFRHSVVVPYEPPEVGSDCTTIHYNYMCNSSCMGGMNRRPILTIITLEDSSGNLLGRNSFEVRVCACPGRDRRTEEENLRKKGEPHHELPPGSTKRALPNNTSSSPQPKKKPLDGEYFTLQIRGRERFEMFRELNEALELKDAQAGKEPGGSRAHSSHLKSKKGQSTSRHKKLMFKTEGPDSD
Tumour suppressor p53/oncoprotein Mdm2 (Homo sapiens, UniProt P04637+Q00987), sequence (Q00987 whole entry): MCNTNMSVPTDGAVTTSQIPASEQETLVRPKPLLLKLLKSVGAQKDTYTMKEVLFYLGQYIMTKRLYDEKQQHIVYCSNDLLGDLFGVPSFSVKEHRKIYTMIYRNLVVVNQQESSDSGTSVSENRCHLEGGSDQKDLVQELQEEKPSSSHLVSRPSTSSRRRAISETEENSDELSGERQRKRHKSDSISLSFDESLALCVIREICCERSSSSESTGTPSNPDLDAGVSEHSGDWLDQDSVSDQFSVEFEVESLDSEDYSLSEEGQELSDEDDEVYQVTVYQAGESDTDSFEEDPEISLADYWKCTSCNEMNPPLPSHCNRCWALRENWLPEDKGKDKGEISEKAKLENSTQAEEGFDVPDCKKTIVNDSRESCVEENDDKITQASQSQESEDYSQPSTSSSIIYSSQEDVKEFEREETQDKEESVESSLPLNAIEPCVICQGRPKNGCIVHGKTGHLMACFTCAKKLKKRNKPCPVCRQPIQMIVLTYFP

Tumour suppressor p53/oncoprotein Mdm2 (Homo sapiens, UniProt Q00987), sequence (P04637 whole entry): as the sequence (P04637 whole entry) above
Tumour suppressor p53/oncoprotein Mdm2 (Homo sapiens, UniProt Q00987), sequence (Q00987 whole entry): as the sequence (Q00987 whole entry) above

On to `CCOCCOC(=O)N1C(c2ccc(OC)cc2OC(C)C)=NC(c2ccc(Cl)cc2)C1c1ccc(Cl)cc1` (configuration not stated), for which, in assay [1], the affinity corresponds to a Ki of 1.38 µM.
For `COc1ccc(C2=NC(c3ccc(Cl)cc3)C(c3ccc(Cl)cc3)N2C(=O)OCCNC(C)=O)c(OC(C)C)c1` (configuration not stated), affinity in [1] was put at a Ki of 0.6 µM. The IC50 in [2] is 33.1 µM; in [3] it was 3.6 µM; in [4] it was 9.1 µM; in assay [5] (Homo sapiens, HCT-116, 72 h) it was 5.81 µM. Moreover, the Activity amounted to 61.67% in assay [6], 30.93% in assay [7] and 7.4% in assay [8].
Turning to `COc1ccc(C2=NC(c3ccc(Cl)cc3)C(c3ccc(Cl)cc3)N2C(=O)CN2CCCCC2)c(OC(C)C)c1` (configuration not stated), in assay [1], the Ki was 82.1 µM.
As for `CCN(CC)CCC(=O)N1C(c2ccc(OC)cc2OC(C)C)=NC(c2ccc(Cl)cc2)C1c1ccc(Cl)cc1` (configuration not stated), the affinity in assay [1] corresponds to a Ki of 1.22 µM. The IC50 was 3.32 µM in assay [2]; 3.82 µM in assay [4]; 3.73 µM in assay [5] (Homo sapiens, HCT-116, 72 h).
Regarding `CCC1=NC(c2ccc(Cl)cc2)C(c2ccc(Cl)cc2)N1C(=O)N(CC)CC` (configuration not stated), the Ki entry in [9] is “Not Active”.
Still for that read-out and setting: next, `CCC1=NC(c2ccc(Cl)cc2)C(c2ccc(Cl)cc2)N1C(=O)NCC(=O)N1CCOCC1` (configuration not stated): “Not Active”.
For `COc1ccc(C2=NC(c3ccc(Cl)cc3)C(c3ccc(Cl)cc3)N2C(=O)CN2CCN(C)CC2)c(OC(C)C)c1` (configuration not stated), the affinity in [1], expressed as Ki, was 25.8 µM.
As to `COc1ccc(C2=NC(c3ccc(Cl)cc3)C(c3ccc(Cl)cc3)N2C(=O)N2CCN(C(C)=O)CC2)c(OC(C)C)c1` (configuration not stated), the IC50 amounted to 29.2 µM in [2]; 35.2 µM in assay [3]; 2.33 µM in assay [4]; 4.58 µM in assay [5] (Homo sapiens, HCT-116, 72 h). Moreover, the results for the Activity in assay [6], in assay [7] and in assay [8] were 66.95%, 19.27% and 13.78%, respectively.
For the compound `COc1ccc(C2=NC(c3ccc(Cl)cc3)C(c3ccc(Cl)cc3)N2C(=O)CCN2CCN(C)CC2)c(OC(C)C)c1` (configuration not stated), affinity in [1] was put at a Ki of 0.9 µM. Moreover, the IC50 in assay [2] was 8.44 µM; in assay [3], 5.81 µM; in assay [4], 3.19 µM; in [5] (Homo sapiens, HCT-116, 72 h), 5.4 µM.
Turning to `CCN(CC)CC(=O)N1C(c2ccc(OC)cc2OC(C)C)=NC(c2ccccc2)C1c1ccccc1` (configuration not stated), the Ki result in [9] is given as “Not Active”.
`COc1ccc(C2=NC(c3ccc(Cl)cc3)C(c3ccc(Cl)cc3)N2C(=O)N2CCC(C(=O)O)CC2)c(OC(C)C)c1` (configuration not stated) came in with a Ki in assay [1] of 8.77 µM.
On the same count and under the same terms, next, `COc1ccc(C2=NC(c3ccc(Cl)cc3)C(c3ccc(Cl)cc3)N2C(=O)CN2CCOCC2)c(OC(C)C)c1` (configuration not stated): 2.64 µM.
On to `COCCOC(=O)N1C(c2ccc(OC)cc2OC(C)C)=NC(c2ccc(Cl)cc2)C1c1ccc(Cl)cc1` (configuration not stated), for which, in assay [1], the Ki came to 2.3 µM. The Ki values of the last two compounds are within 1.5-fold of each other.
`CCN(CC)CC(=O)N1C(c2ccc(OC)cc2OC(C)C)=NC(c2ccc(Cl)cc2)C1c1ccc(Cl)cc1` (configuration not stated): the Ki entry in assay [9] is listed as “Not Active”.
`COc1ccc(C2=NC(c3ccc(Cl)cc3)C(c3ccc(Cl)cc3)N2C(=O)N2CCOCC2)c(OC(C)C)c1` (configuration not stated) yielded a Ki in [1] of 4.07 µM. This counts as single-digit micromolar.
In turn, `COc1ccc(C2=NC(c3ccc(Cl)cc3)C(c3ccc(Cl)cc3)N2C(=O)OCCN(C)C)c(OC(C)C)c1` (configuration not stated) came in with a Ki in [1] of 0.57 µM. Also, the IC50 was 11 µM in [2], 8.27 µM in [3], 10.8 µM in assay [4] and “Not Active” in assay [5] (hct-116).
Turning to `COc1ccc(C2=NC(c3ccc(Cl)cc3)C(c3ccc(Cl)cc3)N2C(=O)OCc2ccccc2)c(OC(C)C)c1` (configuration not stated), affinity in [1] was put at a Ki of 32.4 µM.
As to `CCC1=NC(c2ccc(Cl)cc2)C(c2ccc(Cl)cc2)N1C(=O)N1CCN(C)CC1` (configuration not stated), the inhibitory constant (Ki) result in [9] is recorded as “Not Active”.
Compound `COc1ccc(C2=NC(c3ccc(Cl)cc3)C(c3ccc(Cl)cc3)N2C(=O)CCN2CCOCC2)c(OC(C)C)c1` (configuration not stated) yielded a Ki in assay [1] of 1.3 µM. The IC50 in [2] was 2.74 µM; in assay [4], 3.82 µM; in assay [5] (Homo sapiens, HCT-116, 72 h), 7.57 µM.
Regarding `CCC1=NC(c2ccc(Cl)cc2)C(c2ccc(Cl)cc2)N1C(=O)Nc1ccc(N2CCCC2)cc1` (configuration not stated), the Ki result in [9] is reported as “Not Active”.
Consider `CCOC(=O)CN(C)C(=O)N1C(c2ccc(OC)cc2OC(C)C)=NC(c2ccc(Cl)cc2)C1c1ccc(Cl)cc1` (configuration not stated), for which affinity in assay [1] was put at a Ki of 1.59 µM.
Turning to `COc1ccc(C2=NC(c3ccccc3)C(c3ccccc3)N2C(=O)CN2CCN(C)CC2)c(OC(C)C)c1` (configuration not stated), the Ki result in assay [9] is “Not Active”.
In assay [1], `COc1ccc(C2=NC(c3ccc(Cl)cc3)C(c3ccc(Cl)cc3)N2C(=O)N(C)C)c(OC(C)C)c1` (configuration not stated) gave a Ki of 3.32 µM.
In assay [1], `COc1ccc(C2=NC(c3ccc(Cl)cc3)C(c3ccc(Cl)cc3)N2C(=O)NCC(=O)N2CCOCC2)c(OC(C)C)c1` (configuration not stated) had a Ki of 0.48 µM. For the same compound, the IC50 in assay [2] is 14.3 µM; in assay [3], 7.39 µM; in [4], 8.29 µM; in assay [5] (Homo sapiens, HCT-116, 72 h), 10.9 µM.
As to `COc1ccc(C2=NC(c3ccc(C(F)(F)F)cc3)C(c3ccc(C(F)(F)F)cc3)N2C(=O)CN2CCN(C(C)=O)CC2)c(OC(C)C)c1` (configuration not stated), in [9], the Ki result is “Not Active”.
The same measure, in the same setting: in the case of `COc1ccc(C2=NC(c3ccc(C(F)(F)F)cc3)C(c3ccc(C(F)(F)F)cc3)N2C(=O)N2CCN(C(C)=O)CC2)c(OC(C)C)c1` (configuration not stated) it was “Not Active”.

What is called Ki is the dissociation constant of the complex between target and ligand, obtained from inhibition or displacement. Read a high Ki as weaker binding. By IC50 is commonly meant the point on the concentration scale where inhibition reaches its midpoint. Higher therefore signals weaker potency in that assay.
